These results are taken from US10322136B2, “Composition for inhibiting growth or proliferation of chronic myelogenous leukemia cancer stem cells, and screening method therefor” (HIROSHIMA UNIVERSITY, priority 2015, dated 2019).

The target of one series is T1, Slc15A2 transporter (Mus musculus, UniProt Q9ES07).
T1 construct: endogenous in cells; host or cells: primary mouse normal KLS+ and CML KLS+ haematopoietic cells
T1 sequence (Q9ES07 1-729): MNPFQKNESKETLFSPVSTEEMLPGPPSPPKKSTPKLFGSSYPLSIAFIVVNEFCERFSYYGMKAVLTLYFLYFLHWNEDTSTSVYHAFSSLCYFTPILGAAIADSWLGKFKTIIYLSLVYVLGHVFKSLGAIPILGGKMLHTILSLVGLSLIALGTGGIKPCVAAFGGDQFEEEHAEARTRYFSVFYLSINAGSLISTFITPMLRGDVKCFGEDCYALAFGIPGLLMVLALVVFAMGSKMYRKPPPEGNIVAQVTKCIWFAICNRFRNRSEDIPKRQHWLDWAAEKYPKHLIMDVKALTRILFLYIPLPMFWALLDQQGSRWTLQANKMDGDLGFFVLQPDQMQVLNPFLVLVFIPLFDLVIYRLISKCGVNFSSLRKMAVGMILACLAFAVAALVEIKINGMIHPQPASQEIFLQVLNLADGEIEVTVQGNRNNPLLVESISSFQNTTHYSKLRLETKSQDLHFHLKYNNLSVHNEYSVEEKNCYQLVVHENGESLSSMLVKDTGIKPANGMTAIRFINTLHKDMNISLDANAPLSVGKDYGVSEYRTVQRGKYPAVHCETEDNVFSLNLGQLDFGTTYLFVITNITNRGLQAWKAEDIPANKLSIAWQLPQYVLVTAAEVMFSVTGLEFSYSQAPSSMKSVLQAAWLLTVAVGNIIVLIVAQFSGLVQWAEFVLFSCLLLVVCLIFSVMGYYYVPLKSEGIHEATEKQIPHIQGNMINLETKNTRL
In words: Slc15A2 transporter activity by [3H]GlySar uptake. It is filed as cell-based. To be noted: in the presence of 100 μM cefadroxil; pH 6.0; 60 or 120 min. As for the experimental part: 6. Analysis of Slc15A2 Transporter Activity by [3H]GlySar Uptake
Slc15A2 transporter activity was determined using a well-established assay measuring [3H]GlySar uptake by cells suspended in an acidic transport medium (pH 6.0). Briefly, normal KLS^+ cells or CML KLS^+ cells (1×10^5) were suspended in a transport medium (125 mM NaCl, 4.8 mM KCl, 5.6 mM D-glucose, 1.2 mM CaCl2-2H2O4, 1.2 mM KH2PO4, 1.2 mM MgSO4-7H2O and 25 mM MES, pH 6.0) in the absence or presence of 100 μM cefadroxil (Sigma-Aldrich). To initiate the transporter reaction, [3H]GlySar (Moravek Biochemicals, Brea, Calif.) was added to the cell suspension. After 60 or 120 min, the radioactivity of [3H]GlySar internalized by cells was measured using a liquid scintillation counter.

The test system of a further series is normal HSCs. In words: Colony-forming assay, LT-normal HSCs on OP-9 stromal cells. It is filed as cell-based, mouse. To be noted: 5 μM, 5 days, hypoxic (3% O2). As for the experimental part:
(§1) LT-CML stem cells or LT-normal HSCs (1×10^3/plate) were co-cultured on OP-9 stromal cells for 5 days in the presence of either vehicle (control) or a dipeptide transporter inhibitor cefadroxil (5 μM). Cells were harvested, washed with PBS, and plated in semi-solid methylcellulose medium containing SCF, IL-3, IL-6 and erythropoietin (Methocult GF M3434; Stem Cell Technologies). After growth for 7 days in a humidified atmosphere containing 5% CO2 at 37° C., colony numbers were counted under a light microscope.

In series [1] the test system is Foxo3a-/- LT-CML cancer stem cells. Description: Colony-forming capacity of Foxo3a-/- LT-CML cancer stem cells. It is filed as cell-based, mouse. To be noted: cefadroxil treatment in vitro. As for the experimental part:
as §1, with “To establish our Foxo3a-deficient tet-inducible CML mouse model, Foxo3a-deficient mice 42 (C57BL/6; F5) were crossed with Tal-tTA and TRE-BCR-ABL1 transgenic mice that were backcrossed for five generations in the C57BL/6 background, respectively. LT-CML” for “LT-CML”

The next series has as its system CML-KLS+ cells. In words: Number of GFP/BCR-ABL1+ CML-KLS+ cells in BM of treated CML-affected mice. It is filed as in vivo, mouse. To be noted: daily for 30 days post transplantation. As for the experimental part:
Briefly, CML-affected mice received by oral gavage for 30 days post BM transplantation as described above. The number of GFP/BCR-ABL1+CML-KLS+ cells among total GFP/BCR-ABL1+CML cells isolated from BM MNCs acquired from the two hindlimbs of treated CML-affected mice was assessed by flow cytometry. Freshly purified GFP/BCR-ABL1^+CML-KLS^+ cells (3×10^4) were then serially transplanted into a second set of lethally irradiated congenic recipient mice along with 5×10^5 normal BM MNCs derived from C57BL/6 mice. Mouse survival and disease recurrence were monitored for 90 days.

For series [2], the system named is human CD34+CD38-Lin- CML-LICs. In words: Colony-forming capacity of human CML leukemia-initiating cells. It is filed as cell-based. To be noted: 5 μM cefadroxil, 5 days, three patients. An excerpt:
Viable BM MNCs from three human patients with chronic phase CML were purchased from All cells (#06-255, #06-620, and #147742, Alameda, Calif., USA). Documents confirming the informed consent of the patient are available in http://www.veritastk.co.jp/attached/3978/AllCells_BM_Informed_Consent_Form.pdf. These cells were stained with anti-CD34(8G12), anti-CD38(HIT2), anti-CD3(SK7), anti-CD16(3G8), anti-CD19(SJ25C1), anti-CD20(L27), anti-CD14(MpP9), and anti-CD56(NCAM16.2) antibodies (all purchased from BD Biosciences). A mixture of mAbs recognizing CD3, CD16, CD19, CD20, CD14 and CD56 was used to identify Lin^− cells, and CD34^+CD38^−Lin^− cells were purified. To determine the effects of treatment with cefadroxil (5 μM) alone, or with a combination of cefadroxil+IM (1 μM; Axon Medchem) or dasatinib (500 nM; LC laboratories), CD34^+CD38^−Lin^− cells were cultured on OP-9 stromal cells under hypoxic (3% O2) conditions. After harvesting and washing with PBS, the colony-forming ability of the most primitive human CML leukemia-initiating cells (LICs) was evaluated by culture in semi-solid methylcellulose medium containing SCF, GM-CSF, IL-3, IL-6, G-CSF, and erythropoietin (Methocult GF+ H4435; Stem Cell Technologies). After growth for 7 days at 37° C. under hypoxic (3% O2) conditions, colony numbers were counted under a light microscope.

SMILES strings stand for the structures.

Turning to `CC1=C(C(=O)O)N2C(=O)[C@@H](NC(=O)[C@H](N)c3ccc(O)cc3)[C@H]2SC1` [cefadroxil], the “[3H]GlySar uptake by CML-KLS+ cells” value on Slc15A2 transporter is on record as “markedly decreased”. In addition, the “colony-forming capacity of normal HSCs” value with normal HSCs is “maintained normal levels”. Further, the “number of colonies formed by Foxo3a-/- LT-CML cancer stem cells” value in series [1] was “not altered”. For the same molecule, in the series on CML-KLS+ cells, the “number of CML-KLS+ cells among GFP/BCR-ABL1+ CML cells from BM” value was “significantly decreased”. Further, the “colony-forming capacity of human CML-LIC samples” value in series [2] is “suppressed”.
